The results in this text go back to ChEMBL document CHEMBL4622948, “SAR of non-hydrolysable analogs of pyridoxal 5'-phosphate against low molecular weight protein tyrosine phosphatase isoforms” (Bioorg Med Chem Lett, 2020).

Assay [1] concerns the target T1, Low molecular weight phosphotyrosine protein phosphatase (Homo sapiens) (UniProt P24666).
T1 sequence (whole entry): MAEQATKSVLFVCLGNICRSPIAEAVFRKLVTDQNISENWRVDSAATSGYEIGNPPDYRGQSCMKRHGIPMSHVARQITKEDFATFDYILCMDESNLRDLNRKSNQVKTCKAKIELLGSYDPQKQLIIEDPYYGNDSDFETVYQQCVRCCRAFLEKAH
The assay is described as follows: Inhibition of LMW-PTP isoform A (unknown origin).

For assay [2], the target named is T1, Low molecular weight phosphotyrosine protein phosphatase (Homo sapiens). The assay can be described thus: Inhibition of LMW-PTP isoform B (unknown origin).
The next assay is filed under the species Homo sapiens. The assay is described as follows: Selectivity index, ratio of Ki for LMW-PTP isoform B (unknown origin) to Ki for LMW-PTP isoform A (unknown origin).
The nature of assay [3]: Competitive inhibition of bovine LMW-PTP isoform B using para-Nitrophenyl phosphate as substrate at pH 5 by Lineweaver-Burk double reciprocal plot analysis. Set-up: species or system Bos taurus.
In assay [4] the target is T2, Low molecular weight phosphotyrosine protein phosphatase (Homo sapiens, UniProt P24666).
T2 sequence (P24666 whole entry): T1 sequence (whole entry)
The assay can be described thus: Competitive inhibition of LMW-PTP isoform A (unknown origin).

Regarding `O=P(O)(O)/C=C/c1cccnc1`, the Kis was 243 µM in assay [1] and 1070 µM in assay [2]. Also, in the assay filed under Homo sapiens, the Ratio turned out to be 4.4.

Take `O=P(O)(O)CCc1ccccc1`: the Kis in assay [1] was 552 µM; in assay [2], greater than 10000 µM. Further, the Ratio in the assay filed under Homo sapiens was greater than 18.

On to `O=P(O)(O)C(F)(F)Cc1ccccc1`, for which the values for the Kis in assay [1] and in assay [2] were 359 µM and greater than 10000 µM, respectively. Also, in the assay listed under Homo sapiens, the Ratio is greater than 28.

Turning to `Cc1ccc(/C=C/P(=O)(O)O)cc1O`, the Kis amounted to 50.3 µM in assay [1] and 42.4 µM in assay [2]. Moreover, the Ratio in the assay listed under Homo sapiens was 0.8.

On to `Cc1ccc(CCP(=O)(O)O)cc1`, for which the results for the Kis in assay [1] and in assay [2] were 130 µM and 323 µM, respectively. Besides, the Ratio in the assay filed under Homo sapiens came out at 2.5.

On to `Cc1ncc(CCP(=O)(O)O)c(CO)c1O`, for which the Kis in assay [1] was 10.4 µM; in assay [2], 552 µM. Besides, in the assay listed under Homo sapiens, the Ratio was determined as 53.

In the case of `O=P(O)(O)CCc1cccnc1`, the Kis stood at 103 µM in assay [1] and 1080 µM in assay [2]. Besides, the Ratio in the assay filed under Homo sapiens was 10.4.

On to `Cc1ccc(CCP(=O)(O)O)cc1O`, for which the Kis in assay [1] turned out to be 3.59 µM; in assay [2], 39.9 µM. Moreover, the Ratio in the assay filed under Homo sapiens turned out to be 11.

`O=P(O)(O)/C=C/c1cccc(O)c1`: the Kis in assay [1] was 15.7 µM; in assay [2] it was 580 µM. Also, the Ratio in the assay filed under Homo sapiens is 37.

Consider `Cc1ccc(/C=C/P(=O)(O)O)cc1`, for which the Kis is 66.8 µM in assay [1] and 323 µM in assay [2]. For the same compound, the Ratio in the assay listed under Homo sapiens was 4.8.

As to `O=P(O)(O)CCc1cccc(O)c1`, the figures for the Kis in assay [1] and in assay [2] were 13 µM and 52.2 µM, respectively. In addition, the Ratio in the assay filed under Homo sapiens came to 4.

For orientation: Ki means the dissociation constant of the complex between target and ligand, obtained from inhibition or displacement. Read a high Ki as lower affinity. Regarding `Cc1ncc(COP(=O)(O)O)c(C=O)c1O` [PYRIDOXAL PHOSPHATE ANHYDROUS], the inhibition constant Ki is 7.6 µM in assay [3] and 13 µM in assay [4].

For `Cc1ncc(/C=C/P(=O)(O)O)c(C=O)c1O`, the values for the Kis in assay [1] and in assay [2] were 5.14 µM and 113 µM, respectively. Also, the Ratio in the assay filed under Homo sapiens worked out at 22.

Consider `O=P(O)(O)/C=C/c1ccccc1`, for which the Kis is 482 µM in assay [1] and greater than 10000 µM in assay [2]. In the assay listed under Homo sapiens, the Ratio is greater than 21.

In the case of `Cc1ccc(CCP(=O)(O)O)cn1`, the Kis in assay [1] is 1.84 µM; in assay [2], 15.6 µM. For the same compound, the Ratio in the assay listed under Homo sapiens came out at 8.5.

Regarding `Cc1ncc(CCP(=O)(O)O)c(C=O)c1O`, the Kis in assay [1] came to 74.9 µM; in assay [2], 218 µM. The Ratio in the assay filed under Homo sapiens came to 2.9.

Take `Cc1ccc(/C=C/P(=O)(O)O)cn1`: the values for the Kis in assay [1] and in assay [2] were 213 µM and 842 µM, respectively. Also, the Ratio in the assay filed under Homo sapiens worked out at 4.

Turning to `Cc1ncc(/C=C/P(=O)(O)O)c(CO)c1O`, the Kis in assay [1] came out at 16.3 µM; in assay [2] it was 6060 µM. In the assay listed under Homo sapiens, the Ratio worked out at 372.
